# Source: patent publication US20250195551A1 (L4 BIO LLC, priority 2023, published 2025)
# Columns and labels:
# [1] = biological target: glycine receptor (GlyR); settings: interaction with glycine receptor (GlyR) in humans; cited from earlier work
# [2] = biological target: neuronal alpha-7-nicotinic receptor (Homo sapiens, UniProt P36544); settings: interaction with neuronal alpha-7-nicotinic receptor in humans; cited from earlier work
# [3] = biological target: 7-aminobutyric acid A (GABAA) receptor; settings: interaction with GABAA receptor in humans; cited from earlier work
# [4] = Solubility determination of ivermectin in excipients
# Experimental: The solubility assessments were performed by continually adding a known amount of the API into each individual excipient and letting the excipient reach solubility equilibrium via API saturation (visible solid observed). The experiments were conducted at ambient conditions (25° C.) and were left to mix on a stir plate at 500 RPM for at least 72 hours.
# [5] = biological target: T1, purinergic P2X4 receptors (Homo sapiens, UniProt Q99571); settings: interaction with purinergic P2X4 receptors in humans; cited from earlier work
# T1 sequence (Q99571 1-388): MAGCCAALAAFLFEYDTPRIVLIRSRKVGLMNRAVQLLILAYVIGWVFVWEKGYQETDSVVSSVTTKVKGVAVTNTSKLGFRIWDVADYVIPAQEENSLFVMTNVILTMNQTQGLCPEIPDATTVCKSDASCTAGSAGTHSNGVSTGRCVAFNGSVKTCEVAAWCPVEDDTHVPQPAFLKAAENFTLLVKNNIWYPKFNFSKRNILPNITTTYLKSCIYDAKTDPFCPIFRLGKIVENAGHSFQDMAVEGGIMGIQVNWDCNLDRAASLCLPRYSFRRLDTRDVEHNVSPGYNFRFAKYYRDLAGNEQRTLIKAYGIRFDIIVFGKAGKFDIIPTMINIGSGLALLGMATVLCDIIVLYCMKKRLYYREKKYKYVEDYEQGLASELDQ
# [6] = Excipient compatibility study; format: physicochemical; settings: for Chromatographic purity by HPLC (Assay) / Total Impurities % (excluding API impurities %): 40° C./75% RH
# Experimental: An excipient compatibility study was initiated with selected excipients ranging from oils to surfactants based on equilibrium solubility results (Table 2). […] After solutions were prepared using a hand-held homogenizer (Model IKAT10 Ultra-Turrax), each excipient sample was aliquoted in amber vials, approximately 10% water was added in each excipient aliquot, and bench scale gel stripe OET-004037 was also made and added in a separate set of aliquot samples at approximately 1:1 w/w.
# All samples were stored at 40° C./75% relative humidity (RH) condition (Model: Lunaire environmental chamber) and tested by developmental reversed phase HPLC method for Assay/Related Substances at T=0, 2 weeks, and 1 month.
# [7] = in Fractionated coconut oil, Sample: 10% water, T = 2 weeks
# [8] = in Fractionated coconut oil, Sample: Control, T = 0
# [9] = in Fractionated coconut oil, Sample: Control, T = 2 weeks
# [10] = in Fractionated coconut oil, Sample: Gel Stripe (1:1 w/w), T = 2 weeks
# [11] = in Labrasol ALF, Sample: 10% water, T = 1 months
# [12] = in Labrasol ALF, Sample: 10% water, T = 2 weeks
# [13] = in Labrasol ALF, Sample: Control, T = 0
# [14] = in Labrasol ALF, Sample: Control, T = 1 months
# [15] = in Labrasol ALF, Sample: Control, T = 2 weeks
# [16] = in Labrasol ALF, Sample: Gel Stripe (1:1 w/w), T = 1 months
# [17] = in Labrasol ALF, Sample: Gel Stripe (1:1 w/w), T = 2 weeks
# [18] = in Maisine CC, Sample: 10% water, T = 1 months
# [19] = in Maisine CC, Sample: 10% water, T = 2 weeks
# [20] = in Maisine CC, Sample: Control, T = 0
# [21] = in Maisine CC, Sample: Control, T = 1 months
# [22] = in Maisine CC, Sample: Control, T = 2 weeks
# [23] = in Maisine CC, Sample: Gel Stripe (1:1 w/w), T = 1 months
# Chain of neuronal alpha-7-nicotinic receptor (P36544 23-502): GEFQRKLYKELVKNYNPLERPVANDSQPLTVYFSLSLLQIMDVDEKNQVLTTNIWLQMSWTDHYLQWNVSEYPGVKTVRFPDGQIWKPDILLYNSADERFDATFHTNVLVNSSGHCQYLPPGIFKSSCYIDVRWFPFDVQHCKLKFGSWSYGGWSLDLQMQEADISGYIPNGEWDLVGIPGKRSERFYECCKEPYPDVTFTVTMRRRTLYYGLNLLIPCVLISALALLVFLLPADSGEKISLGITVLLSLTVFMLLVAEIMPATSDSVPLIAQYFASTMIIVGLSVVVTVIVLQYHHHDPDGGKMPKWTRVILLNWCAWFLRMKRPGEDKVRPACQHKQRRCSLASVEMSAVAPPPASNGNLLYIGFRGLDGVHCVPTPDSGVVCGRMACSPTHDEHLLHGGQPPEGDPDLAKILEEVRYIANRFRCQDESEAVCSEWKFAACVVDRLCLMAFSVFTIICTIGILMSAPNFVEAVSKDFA
substance,measurement,setting,value
ivermectin,EC50,[1],~1200 nM
same,EC50,[2],~30000 nM
same,EC50,[3],~920 nM
same,Solubility,"[4]; in Capryol 90, 25° C.",150.92 mg/g
same,Solubility,"[4]; in Fractionated Coconut oil, 25° C.",16.55 mg/g
same,Solubility,"[4]; in Glycerin, 25° C.",<0.1 mg/g
same,Solubility,"[4]; in Kolliphor EL, 25° C.",95.85 mg/g
same,Solubility,"[4]; in Labrafil M 2125 CS, 25° C.",35.32 mg/g
same,Solubility,"[4]; in Labrasol ALF, 25° C.",126.36 mg/g
same,Solubility,"[4]; in LauroglycolTM FCC, 25° C.",71.96 mg/g
same,Solubility,"[4]; in Maisine CC, 25° C.",60.17 mg/g
same,Solubility,"[4]; in Masester E8120, 25° C.",164.06 mg/g
same,Solubility,"[4]; in Medium Chain Triglyceride, 25° C.",16.49 mg/g
same,Solubility,"[4]; in Oleic acid, 25° C.",48.58 mg/g
same,Solubility,"[4]; in Olive oil, 25° C.",4.71 mg/g
same,Solubility,"[4]; in PEG 400, 25° C.",112.92 mg/g
same,Solubility,"[4]; in Propylene glycol, 25° C.",25.61 mg/g
same,Solubility,"[4]; in Soybean oil, 25° C.",6.72 mg/g
same,Solubility,"[4]; in Span 20, 25° C.",97.66 mg/g
same,Solubility,"[4]; in Span 80, 25° C.",54.04 mg/g
same,Solubility,"[4]; in Triacetin, 25° C.",58.75 mg/g
same,Solubility,"[4]; in Tween 80, 25° C.",88.26 mg/g
same,Solubility,"[4]; in Vitamin E TPGS, table title 25° C., text: conducted at 40° C.",82.98 mg/g
same,EC50,[5],~250 nM
same,Chemical compatibility with the API,[6]; PEG 400 as co-solvent,poor chemical compatibility
same,Chemical compatibility with the API,[6]; Vitamin E TPGS compared with Tween 80 and Labrasol ALF (surfactants),best chemical compatibility
same,Chromatographic purity by HPLC (Assay),[6]; [7],97.83 % area
same,Total Impurities % (excluding API impurities %),[6]; [7],<LOQ
same,Chromatographic purity by HPLC (Assay),[6]; [8],95.61 % area
same,Total Impurities % (excluding API impurities %),[6]; [8],<LOQ
same,Chromatographic purity by HPLC (Assay),[6]; [9],97.94 % area
same,Total Impurities % (excluding API impurities %),[6]; [9],<LOQ
same,Chromatographic purity by HPLC (Assay),[6]; [10],94.42 % area
same,Total Impurities % (excluding API impurities %),[6]; [10],3.28 % adjusted area
same,Chromatographic purity by HPLC (Assay),[6]; [11],89.91 % area
same,Total Impurities % (excluding API impurities %),[6]; [11],8.76 % adjusted area
same,Chromatographic purity by HPLC (Assay),[6]; [12],93.91 % area
same,Total Impurities % (excluding API impurities %),[6]; [12],3.46 % adjusted area
same,Chromatographic purity by HPLC (Assay),[6]; [13],97.74 % area
same,Total Impurities % (excluding API impurities %),[6]; [13],<LOQ
same,Chromatographic purity by HPLC (Assay),[6]; [14],81.35 % area
same,Total Impurities % (excluding API impurities %),[6]; [14],20.49 % adjusted area
same,Chromatographic purity by HPLC (Assay),[6]; [15],89.16 % area
same,Total Impurities % (excluding API impurities %),[6]; [15],8.67 % adjusted area
same,Chromatographic purity by HPLC (Assay),[6]; [16],96.49 % area
same,Total Impurities % (excluding API impurities %),[6]; [16],1.06 % adjusted area
same,Chromatographic purity by HPLC (Assay),[6]; [17],97.11 % area
same,Total Impurities % (excluding API impurities %),[6]; [17],0.30 % adjusted area
same,Chromatographic purity by HPLC (Assay),[6]; [18],96.83 % area
same,Total Impurities % (excluding API impurities %),[6]; [18],0.69 % adjusted area
same,Chromatographic purity by HPLC (Assay),[6]; [19],95.90 % area
same,Total Impurities % (excluding API impurities %),[6]; [19],0.45 % adjusted area
same,Chromatographic purity by HPLC (Assay),[6]; [20],97.13 % area
same,Total Impurities % (excluding API impurities %),[6]; [20],0.58 % adjusted area
same,Chromatographic purity by HPLC (Assay),[6]; [21],96.82 % area
same,Total Impurities % (excluding API impurities %),[6]; [21],0.71 % adjusted area
same,Chromatographic purity by HPLC (Assay),[6]; [22],96.00 % area
same,Total Impurities % (excluding API impurities %),[6]; [22],0.35 % adjusted area
same,Chromatographic purity by HPLC (Assay),[6]; [23],96.94 % area
same,Total Impurities % (excluding API impurities %),[6]; [23],0.58 % adjusted area
